From article PMC12883167 (Bioorganic & medicinal chemistry letters, 2019)
“And” between values parts separate entries of the source, which are not always exact repeats. Equal entries are not always repeated. Numbered stars: 1 amine (or outer) side, 2 acyl side, 3 side chain; on linkers, the order of the positions; unused ones are H or OH. Square brackets hold non-standard residues; d marks the D form. Peptide text beside a SMILES is read from it. * marks the point of attachment. cisHyp = O=C(O)[C@@H]1C[C@H](O)CN1; Hyp = O=C(O)[C@@H]1C[C@@H](O)CN1; Chg = N[C@H](C(=O)O)C1CCCCC1; Phg = N[C@H](C(=O)O)c1ccccc1; Tle = CC(C)(C)[C@H](N)C(=O)O; NMeV = CN[C@H](C(=O)O)C(C)C; αMeP = C[C@@]1(C(=O)O)CCCN1; Pip = O=C(O)[C@@H]1CCCCN1; Ac6c = NC1(C(=O)O)CCCCC1; Ac5c = NC1(C(=O)O)CCCC1; Cbz = O=C(OCc1ccccc1)*; CO = O=C([*:1])[*:2]; Bz = O=C(c1ccccc1)*; NHPh = c1ccc(N*)cc1; CH2F = FC*

Legend:
MALT1 protease = target: T1, MALT1 protease (Homo sapiens, UniProt Q9UDY8); type: cell-based; conditions: Cell (Glo), GloSensor reporter, PMA/IO activated Raji cells
T1 sequence (Q9UDY8 1-824): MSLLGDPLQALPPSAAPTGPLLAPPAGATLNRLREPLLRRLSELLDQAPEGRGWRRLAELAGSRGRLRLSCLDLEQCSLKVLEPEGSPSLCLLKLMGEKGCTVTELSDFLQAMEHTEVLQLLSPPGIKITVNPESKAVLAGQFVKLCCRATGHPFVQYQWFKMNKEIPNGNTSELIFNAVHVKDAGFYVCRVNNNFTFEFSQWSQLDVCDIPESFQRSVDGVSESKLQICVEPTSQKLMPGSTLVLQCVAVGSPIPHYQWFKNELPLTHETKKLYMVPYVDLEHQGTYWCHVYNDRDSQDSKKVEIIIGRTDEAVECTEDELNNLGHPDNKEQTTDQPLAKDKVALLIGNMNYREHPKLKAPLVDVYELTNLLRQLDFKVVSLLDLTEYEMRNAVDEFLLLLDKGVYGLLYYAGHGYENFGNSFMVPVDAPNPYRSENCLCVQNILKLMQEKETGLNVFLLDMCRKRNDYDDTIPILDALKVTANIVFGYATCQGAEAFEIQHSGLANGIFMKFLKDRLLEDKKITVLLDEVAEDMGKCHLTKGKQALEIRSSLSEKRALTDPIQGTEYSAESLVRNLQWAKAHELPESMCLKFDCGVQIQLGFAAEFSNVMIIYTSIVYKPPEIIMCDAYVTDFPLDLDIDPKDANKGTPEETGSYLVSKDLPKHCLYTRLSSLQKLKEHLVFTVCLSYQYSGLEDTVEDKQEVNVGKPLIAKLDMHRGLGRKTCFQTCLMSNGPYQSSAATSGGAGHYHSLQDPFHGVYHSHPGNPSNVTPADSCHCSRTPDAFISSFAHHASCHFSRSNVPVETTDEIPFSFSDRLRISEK

OCI-Ly3 cells = test: OCI-Ly3 cell proliferation assay
[1] = tested on: RelB cleavage (MALT1 protease activity) in OCI-Ly3 cells; test: Inhibition of RelB cleavage in OCI-Ly3 cells by Western blot; type: cell-based; conditions: at 20 μM
MALT1 [2] = target: T2, MALT1 (Homo sapiens, UniProt Q9UDY8); test: MALT1 biochemical assay; conditions: at 5 μM
T2 sequence (Q9UDY8 1-824): T1 sequence (Q9UDY8 1-824)

calpain = test: Protease selectivity profiling, calpain; type: biochemical; conditions: at 100 nM
cathepsin B = cathepsin B (Homo sapiens, UniProt P07858); test: Protease selectivity profiling, cathepsin B; type: biochemical; conditions: at 100 nM
cathepsin S = cathepsin S (Homo sapiens, UniProt P25774); test: Protease selectivity profiling, cathepsin S; type: biochemical; conditions: at 100 nM
cathepsin S, sequence (P25774 115-331, species assumed): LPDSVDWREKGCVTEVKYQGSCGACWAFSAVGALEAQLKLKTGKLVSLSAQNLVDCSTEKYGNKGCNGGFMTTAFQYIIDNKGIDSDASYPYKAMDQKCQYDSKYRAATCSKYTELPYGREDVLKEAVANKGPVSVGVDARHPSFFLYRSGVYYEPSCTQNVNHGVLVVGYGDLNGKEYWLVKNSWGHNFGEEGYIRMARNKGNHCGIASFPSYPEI

trypsin = test: Protease selectivity profiling, trypsin; type: biochemical; conditions: at 100 nM
[3] = Plasma levels upon IV and IP dosing in mice; type: in vivo
MALT1 [4] = target: T2, MALT1; conditions: PD studies ref 20; cited from earlier work
[5] = tested on: ABC-DLBCL xenograft models; conditions: two ABC-DLBCL xenograft models ref 20; cited from earlier work
[6] = tested on: panel of 26 proteases, primarily caspases and cathepsins; test: Selectivity panel of 26 proteases; type: biochemical; conditions: profiling at lower concentrations

Row | Compound | IC50 (MALT1 protease) | further results
1 | CC(C)[C@H](NC(=O)C1CCCCC1)C(=O)N1CCC[C@H]1C(=O)N[C@@H](CCCNC(=N)N)C(=O)CF [Compound 28] | 0.64 µM | 
2 | CC(C)[C@H](NC(=O)c1ccccc1)C(=O)N1CCC[C@H]1C(=O)N[C@@H](CCCNC(=N)N)C(=O)CF [Compound 19] (Bz-Val-Pro-Arg-CH2F) | 0.64 µM | 
3 | CN[C@H](C(=O)N1CCC[C@H]1C(=O)N[C@@H](CCCNC(=N)N)C(=O)CF)C(C)C [Compound 3] (H-[NMeV]-Pro-Arg-CH2F) | > 20 µM | activity in the cell (proliferation) assay, in words (OCI-Ly3 cells): inactive
4 | CC(C)[C@@H](C(=O)N1CCC[C@H]1C(=O)N[C@@H](CCCNC(=N)N)C(=O)CF)N(C)C(=O)OCc1ccccc1 [Compound 5] (Cbz-[NMeV]-Pro-Arg-CH2F) | 3 µM | 
5 | CC(C)[C@H](NC(=O)c1ccc(C#N)cc1)C(=O)N1CCC[C@H]1C(=O)N[C@@H](CCCNC(=N)N)C(=O)CF [Compound 24] | 0.71 µM | 
6 | N=C(N)NCCC[C@H](NC(=O)[C@@H]1CCCN1C(=O)[C@@H](NC(=O)OCc1ccccc1)C1CCCCC1)C(=O)CF [Compound 34] (Cbz-[Chg]-Pro-Arg-CH2F) | 0.15 µM | 
7 | CC(C)[C@H](NC(=O)OCc1ccccc1)C(=O)N1C[C@@H](O)C[C@H]1C(=O)N[C@@H](CCCNC(=N)N)C(=O)CF [Compound 42] (Cbz-Val-[cisHyp]-Arg-CH2F) | 0.239 µM | 
8 | N=C(N)NCCC[C@H](NC(=O)[C@@H]1CCCN1C(=O)C1(NC(=O)OCc2ccccc2)CCCC1)C(=O)CF [Compound 38] (Cbz-[Ac5c]-Pro-Arg-CH2F) | 5.38 µM | 
9 | CC(C)[C@H](NC(=O)OCc1ccccc1)C(=O)N[C@@H](CCCNC(=N)N)C(=O)N1CCC[C@H]1C(=O)N[C@@H](CCCNC(=N)N)C(=O)CF [Z-VRPR-fmk, reference compound] |  | inhibition of RelB cleavage [1]: partial inhibition
10 | N=C(N)NCCC[C@H](NC(=O)[C@@H]1CCCN1C(=O)[C@H](Cc1ccccc1)NC(=O)OCc1ccccc1)C(=O)CF [Compound 33] | 2.03 µM | 
11 | CC(C)[C@H](NC(=O)OCc1ccccc1)C(=O)N1CCCC[C@H]1C(=O)N[C@@H](CCCNC(=N)N)C(=O)CF [Compound 40] (Cbz-Val-[Pip]-Arg-CH2F) | 0.144 µM | 
12 | CCC(=O)[C@H](CCCNC(=N)N)NC(=O)[C@@H]1CCCN1C(=O)[C@@H](NC(=O)[C@H](CC(C)C)NC(=O)OCc1ccccc1)C(C)C [Compound 2] | > 20 µM | activity in the biochemical assay (MALT1 [2]): no activity; inhibition of RelB cleavage [1]: no effects; activity in the cell (proliferation) assay, in words (OCI-Ly3 cells): no activity
13 | CC(C)[C@H](NC(=O)c1ccc(Br)cc1)C(=O)N[C@@H](CO)C(=O)N[C@@H](CCCNC(=N)N)C(=O)CF [Compound 44] |  | activity against calpain (calpain): active; activity against cathepsin B (cathepsin B): active; activity against cathepsin S (cathepsin S): active
14 | CC(C)[C@H](NC(=O)OCc1ccccc1)C(=O)N1C[C@H](O)C[C@H]1C(=O)N[C@@H](CCCNC(=N)N)C(=O)CF [Compound 41] (Cbz-Val-[Hyp]-Arg-CH2F) | 0.209 µM | 
15 | N=C(N)NCCC[C@H](NC(=O)[C@@H]1CCCN1C(=O)[C@@H](NC(=O)c1ccc(Br)cc1)C1CCCCC1)C(=O)CF [Compound 51] | 0.043 µM | 
16 | CC(C)[C@H](NC(=O)OCc1ccccc1)C(=O)N1CCC[C@@]1(C)C(=O)N[C@@H](CCCNC(=N)N)C(=O)CF [Compound 43] (Cbz-Val-[αMeP]-Arg-CH2F) | 0.873 µM | 
17 | CC(C)(C)[C@H](NC(=O)OCc1ccccc1)C(=O)N1CCC[C@H]1C(=O)N[C@@H](CCCNC(=N)N)C(=O)CF [Compound 35] (Cbz-[Tle]-Pro-Arg-CH2F) | 0.71 µM | 
18 | CC(C)[C@H](NC(=O)Nc1ccc(Cl)cc1)C(=O)N1CCC[C@H]1C(=O)N[C@@H](CCCNC(=N)N)C(=O)CF [Compound 30] | 0.11 µM | 
19 | CC(C)[C@H](NC(=O)Nc1ccccc1)C(=O)N1CCC[C@H]1C(=O)N[C@@H](CCCNC(=N)N)C(=O)CF [Compound 29] ({NHPh-CO}-Val-Pro-Arg-CH2F) | 0.17 µM | 
20 | N=C(N)NCCC[C@H](NC(=O)[C@@H]1CCCN1C(=O)[C@@H](NC(=O)OCc1ccccc1)c1ccccc1)C(=O)CF [Compound 36] (Cbz-[Phg]-Pro-Arg-CH2F) | 1.43 µM | 
21 | CC(C)[C@H](NC(=O)c1ccccc1Br)C(=O)N1CCC[C@H]1C(=O)N[C@@H](CCCNC(=N)N)C(=O)CF [Compound 20] | 1.11 µM | 
22 | CC(C)C[C@H](NC(=O)OCc1ccccc1)C(=O)N1CCC[C@H]1C(=O)N[C@@H](CCCNC(=N)N)C(=O)CF [Compound 31] (Cbz-Leu-Pro-Arg-CH2F) | 3.42 µM | 
23 | CC[C@H](C)[C@H](NC(=O)OCc1ccccc1)C(=O)N1CCC[C@H]1C(=O)N[C@@H](CCCNC(=N)N)C(=O)CF [Compound 32] (Cbz-Ile-Pro-Arg-CH2F) | 1.86 µM | 
24 | CC(C)[C@H](NC(=O)c1ccc(C(F)(F)F)cc1)C(=O)N1CCC[C@H]1C(=O)N[C@@H](CCCNC(=N)N)C(=O)CF [Compound 25] | 0.23 µM | 
25 | N=C(N)NCCC[C@H](NC(=O)[C@@H]1C[C@@H](O)CN1C(=O)[C@@H](NC(=O)c1ccc(Br)cc1)C1CCCCC1)C(=O)CF [Compound 53] | 0.065 µM | 
26 | N=C(N)NCCC[C@H](NC(=O)[C@@H]1CCCN1C(=O)C1(NC(=O)OCc2ccccc2)CCCCC1)C(=O)CF [Compound 37] (Cbz-[Ac6c]-Pro-Arg-CH2F) | 6 µM | 
27 | CC(C)[C@H](NC(=O)OCc1ccccc1)C(=O)N1CCC[C@H]1C(=O)N[C@@H](CCCNC(=N)N)C(=O)CF [Compound 4, Z-VPR-fmk] (Cbz-Val-Pro-Arg-CH2F) | 1.96 µM | 
28 | CC(C)[C@H](NC(=O)c1cccc(Br)c1)C(=O)N1CCC[C@H]1C(=O)N[C@@H](CCCNC(=N)N)C(=O)CF [Compound 21] | 0.18 µM | 

Now from value to compound, other results behind:

Row | IC50 (MALT1 protease) | Compound | further results
29 | 17.5 µM | CC(C)[C@H](NC(=O)c1ccc(Br)cc1)C(=O)N1CCC[C@@H]1C(=O)N[C@@H](CCCNC(=N)N)C(=O)CF [Compound 50] | 
30 | 0.149 µM | CC(C)[C@H](NC(=O)OCc1ccccc1)C(=O)N[C@@H](CO)C(=O)N[C@@H](CCCNC(=N)N)C(=O)CF [Compound 39] | 
31 | 0.219 µM | CC(C)[C@H](NC(=O)c1ccc(Br)cc1)C(=O)N1CC[C@H]1C(=O)N[C@@H](CCCNC(=N)N)C(=O)CF [Compound 47] | 
32 | 0.18 µM | CC(C)[C@H](NC(=O)c1ccc(Cl)cc1)C(=O)N1CCC[C@H]1C(=O)N[C@@H](CCCNC(=N)N)C(=O)CF [Compound 23] | 
33 | 0.174 µM | CC(C)[C@H](NC(=O)c1ccc(Br)cc1)C(=O)N1CCOC[C@H]1C(=O)N[C@@H](CCCNC(=N)N)C(=O)CF [Compound 49] | 
34 | 0.8 µM | COc1ccc(C(=O)N[C@H](C(=O)N2CCC[C@H]2C(=O)N[C@@H](CCCNC(=N)N)C(=O)CF)C(C)C)cc1 [Compound 26] | 
35 | 0.085 µM | CC(C)[C@H](NC(=O)c1ccc(Br)cc1)C(=O)N1C[C@H](O)C[C@H]1C(=O)N[C@@H](CCCNC(=N)N)C(=O)CF [Compound 45] | 
36 | 0.071 µM and 0.07 µM | CC(C)[C@H](NC(=O)c1ccc(Br)cc1)C(=O)N1CCC[C@H]1C(=O)N[C@@H](CCCNC(=N)N)C(=O)CF [Compound 22] | potency against trypsin (trypsin): > 80%; plasma levels [3]: moderate plasma levels for several hours; in vivo inhibition of MALT1 activity (MALT1 [4]): in vivo inhibition of MALT1 activity; effects on tumor growth [5]: moderate effects on tumor growth
37 | 0.07 µM | CC(C)c1ccc(C(=O)N[C@H](C(=O)N2CCC[C@H]2C(=O)N[C@@H](CCCNC(=N)N)C(=O)CF)C(C)C)cc1 [Compound 27] | 
38 | 0.087 µM | N=C(N)NCCC[C@H](NC(=O)[C@H](CO)NC(=O)[C@@H](NC(=O)c1ccc(Br)cc1)C1CCCCC1)C(=O)CF [Compound 52] | 
39 | 0.327 µM | CC(C)[C@H](NC(=O)c1ccc(Br)cc1)C(=O)N1CCCC[C@H]1C(=O)N[C@@H](CCCNC(=N)N)C(=O)CF [Compound 46] | selectivity in protease panel [6]: the most selective compound; activity against cathepsin S (cathepsin S): highest activity
40 | 0.077 µM | CC(C)[C@H](NC(=O)c1ccc(Br)cc1)C(=O)N1COC[C@H]1C(=O)N[C@@H](CCCNC(=N)N)C(=O)CF [Compound 48] | 
